Laboratory results as given in publication PMC9188596, “Structural basis of resistance to herbicides that target acetohydroxyacid synthase” (Nature Communications, 2022).
Where “and” joins values, the source holds several entries; their conditions need not be identical. Equal values may be shown once.

Legend:
AtAHAS S653T mutant [1] = target: T1, AtAHAS S653T mutant (Arabidopsis thaliana, UniProt P17597, S653T); assay: Inhibition of AHAS activity by ubiquinone Q0; format: biochemical; conditions: read-out: % inhibition of AHAS activity by 0.5 mM Q0
Description: (§1) Next, we investigated how the mutants responded to regulation by redox signaling molecules using ubiquinone Q0 (Q0) as an example[14].
(§2) Supplementary Figure 5. Inhibition of WT AtAHAS and the mutants by Q0. AtAHAS was incubated with 100 mM pyruvate at 30°C. After reaching full activation, the inhibition reaction was initiated by addition of 0.5 mM Q0 to the sample cell. After seven minutes incubation with Q0, 1 mM DTT was added to reduce the remaining Q0, triggering re-activation of the enzyme.
(§3) Source data are provided with this paper.
(§4) (1 picture or pasted object on this page, not shown here)

AtAHAS W574L mutant [2] = target: T2, AtAHAS W574L mutant (Arabidopsis thaliana, UniProt P17597, W574L); assay: Inhibition of AHAS activity by ubiquinone Q0; format: biochemical; conditions: read-out: % inhibition of AHAS activity by 0.5 mM Q0
Description: as §1, §2, §3, §4

AtAHAS P197L mutant [3] = target: T3, AtAHAS P197L mutant (Arabidopsis thaliana, UniProt P17597, P197L); assay: Inhibition of AHAS activity by ubiquinone Q0; format: biochemical; conditions: read-out: % inhibition of AHAS activity by 0.5 mM Q0
Description: as §1, §2, §3, §4

WT AtAHAS [4] = target: T4, WT AtAHAS (Arabidopsis thaliana, UniProt P17597); assay: Inhibition of AHAS activity by ubiquinone Q0; format: biochemical; conditions: read-out: % inhibition of AHAS activity by 0.5 mM Q0
Description: as §1, §2, §3, §4

AtAHAS P197T mutant [5] = target: T5, AtAHAS P197T mutant (Arabidopsis thaliana, UniProt P17597, P197T); assay: Inhibition of AHAS activity by ubiquinone Q0; format: biochemical; conditions: read-out: % inhibition of AHAS activity by 0.5 mM Q0
Description: as §1, §2, §3, §4

AtAHAS S653T mutant [6] = target: T1, AtAHAS S653T mutant; format: biochemical
Description: (§5) Standard assays were performed using a continuous spectrophotometric method measuring the disappearance of pyruvate. The standard buffer contained 50 mM potassium phosphate, pH 7.2, 1 mM ThDP, 10 mM MgCl2, and 10 µM FAD. The concentration of pyruvate was in the range 100–160 mM, as described in the text, methods, or figure legends.
(§6) AtAHAS was assayed in the standard assay buffer containing 160 mM pyruvate, at 30 °C. For AtAHAS activation the progress curve corresponding to the lag-phase was fitted to Eq. (8) of Lonhienne et al.[14]. For the time dependent accumulative inhibition of AtAHAS the progress curves were fitted to Equation 9 of Lonhienne et al.[12].
(§7) Supplementary Figure 8. Measurement of the rate constants of accumulative inhibition for WT AtAHAS and its mutants. The progress curves were fitted to the equation of accumulative inhibition (Equation 7 2). The rate constants of enzyme inactivation ( kiapp) and enzyme recovery (k3) were measured in triplicate. Source data are provided with this paper. […]

AtAHAS W574L mutant [7] = target: T2, AtAHAS W574L mutant; format: biochemical; conditions: NAI = no accumulative inhibition detected
Description: as §5, §6, §7

AtAHAS P197L mutant [8] = target: T3, AtAHAS P197L mutant; format: biochemical; conditions: NAI = no accumulative inhibition detected
Description: as §5, §6, §7

AtAHAS P197T mutant [9] = target: T5, AtAHAS P197T mutant; format: biochemical; conditions: P197T, NAI = no accumulative inhibition detected
Description: as §5, §6, §7

AtAHAS S653T mutant [10] = target: T1, AtAHAS S653T mutant; assay: biochemical; conditions: Ki, S653T mutant; ± standard error of the mean
Description: as §5
(§8) Supplementary Figure 6. Measurement of the Ki values for WT AtAHAS and the mutants.
(§9) The error bars represent the standard error of the mean of two independent replicates. [I] =
(§10) inhibitor concentration. Source data are provided with this paper.
as §4

AtAHAS W574L mutant [11] = target: T2, AtAHAS W574L mutant; assay: biochemical
Description: as §5, §8, §9, §10, §4

AtAHAS P197L mutant [12] = target: T3, AtAHAS P197L mutant; assay: biochemical
Description: as §5, §8, §9, §10, §4

AtAHAS P197T mutant [13] = target: T5, AtAHAS P197T mutant; assay: biochemical
Description: as §5, §8, §9, §10, §4

WT AtAHAS [14] = target: T4, WT AtAHAS; assay: Ki of herbicides, continuous spectrophotometric AHAS assay; format: biochemical; conditions: Ki, WT AtAHAS; ± standard error of the mean
Description: as §5, §8, §9, §10, §4

WT AtAHAS [15] = target: T4, WT AtAHAS; format: biochemical
Description: as §5, §6
Supplementary Figure 8. Measurement of the rate constants of accumulative inhibition for WT AtAHAS and its mutants. The progress curves were fitted to the equation of accumulative inhibition (Equation 7 2). The rate constants of enzyme inactivation ( kiapp) and enzyme recovery (k3) were measured in triplicate. Source data are provided with this paper.

[16] = S653T, individual replicate of triplicate
[17] = individual replicate of triplicate

COC1=C(OC)C(=O)C(C)=CC1=O [Q0, ubiquinone Q0]
inhibition at 500 µM (AtAHAS S653T mutant [1]): 85%
inhibition at 500 µM (AtAHAS W574L mutant [2]): 97%
inhibition at 500 µM (AtAHAS P197L mutant [3]): 89%
inhibition at 500 µM (WT AtAHAS [4]): 82%
inhibition at 500 µM (AtAHAS P197T mutant [5]): 91%

COc1cc(OC)nc(NC(=O)NS(=O)(=O)N(C)S(C)(=O)=O)n1 [AS, amidosulfuron]
kiapp/k3 (efficiency of accumulative inhibition) (AtAHAS S653T mutant [6]; S653T): 95
efficiency of accumulative inhibition (kiapp/k3) compared to WT (in words) (AtAHAS S653T mutant [6]; S653T vs WT): increased
k3 (rate of recovery) (AtAHAS S653T mutant [6]; S653T, 160 mM pyruvate, 30 °C, ± SEM): 0.02 ± 0.002 min⁻¹
k3, single progress curve (Supplementary Figure 8) (AtAHAS S653T mutant [6]; [16]): 0.02 min⁻¹ and 0.023 min⁻¹ and 0.021 min⁻¹
kiapp, single progress curve (Supplementary Figure 8) (AtAHAS S653T mutant [6]; [16]): 1.93 min⁻¹ and 1.94 min⁻¹ and 2.21 min⁻¹
k3 (rate of recovery) (AtAHAS W574L mutant [7]; 160 mM pyruvate, 30 °C): NAI
kiapp (apparent rate of enzyme inactivation) (AtAHAS W574L mutant [7]; 160 mM pyruvate, 30 °C): NAI
kiapp/k3 (efficiency of accumulative inhibition) (AtAHAS W574L mutant [7]): NAI
k3 (rate of recovery) (AtAHAS P197L mutant [8]; 160 mM pyruvate, 30 °C): NAI
kiapp (apparent rate of enzyme inactivation) (AtAHAS P197L mutant [8]; 160 mM pyruvate, 30 °C): NAI
kiapp/k3 (efficiency of accumulative inhibition) (AtAHAS P197L mutant [8]): NAI
k3 (rate of recovery) (AtAHAS P197T mutant [9]; 160 mM pyruvate, 30 °C): NAI
kiapp (apparent rate of enzyme inactivation) (AtAHAS P197T mutant [9]; 160 mM pyruvate, 30 °C): NAI
kiapp/k3 (efficiency of accumulative inhibition) (AtAHAS P197T mutant [9]): NAI
Ki (AtAHAS S653T mutant [10]): 0.492 ± 0.025 µM
Ki (AtAHAS W574L mutant [11]; Ki (Supplementary Figure 6), W574L, fit of % activity remaining vs [I], two independent replicates): 871 ± 66.5 µM
Ki (AtAHAS W574L mutant [11]; Ki, W574L mutant, ± standard error of the mean): 870 ± 60 µM
Ki (AtAHAS P197L mutant [12]; Ki (Supplementary Figure 6), P197L, fit of % activity remaining vs [I], two independent replicates): 93.5 ± 17.1 µM
Ki (AtAHAS P197L mutant [12]; Ki, P197L mutant, ± standard error of the mean): 93.5 ± 17.1 µM
Ki (AtAHAS P197T mutant [13]; Ki (Supplementary Figure 6), P197T, fit of % activity remaining vs [I], two independent replicates): 61.4 ± 8.92 µM
Ki (AtAHAS P197T mutant [13]; Ki, P197T mutant, ± standard error of the mean): 61.4 ± 8.9 µM
Ki (WT AtAHAS [14]): 4.2 ± 0.6 µM
kiapp/k3 (efficiency of accumulative inhibition) (WT AtAHAS [15]): 20
k3 (rate of recovery) (WT AtAHAS [15]; 160 mM pyruvate, 30 °C, ± SEM): 0.02 ± 0.001 min⁻¹
kiapp (apparent rate of enzyme inactivation) (WT AtAHAS [15]; 160 mM pyruvate, 30 °C, ± SEM): 0.39 ± 0.06 min⁻¹
k3, single progress curve (Supplementary Figure 8) (WT AtAHAS [15]; [17]): 0.021 min-1 and 0.02 min-1 (2×)
kiapp, single progress curve (Supplementary Figure 8) (WT AtAHAS [15]; [17]): 0.34 min⁻¹ and 0.46 min⁻¹ and 0.36 min⁻¹
